Source: PubChem BioAssay (NCI)
Several values for one entry are separate records, joined by “and”; a condition that tells them apart may be missing. Equal entries are not always repeated.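 Results reflect a 48-hour exposure of cells in 96-well plates to compound at five concentrations. GI50 is the concentration that inhibits growth by half. TGI denotes the concentration required for complete inhibition of growth.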

What was measured:
Test in all cases: NCI anticancer screen, dose series, 48 h
[1] = tested on: NCI/ADR-RES ovarian
[2] = tested on: MDA-MB-231 breast
[3] = tested on: DU-145 prostate
[4] = tested on: HOP-92 NSCLC
[5] = tested on: NCI-H226 lung
[6] = tested on: NCI-H23 lung
[7] = tested on: UACC-257 melanoma
[8] = tested on: PC-3 prostate
[9] = tested on: BT-549 breast
[10] = tested on: HS 578T breast
[11] = tested on: MDA-MB-435
[12] = tested on: T-47D breast
[13] = tested on: MCF7 breast
[14] = tested on: IGROV1 ovarian
[15] = tested on: MALME-3M melanoma
[16] = tested on: SW-620 colon
[17] = tested on: RPMI-8226 leukemia
[18] = tested on: NCI-H522 lung
[19] = tested on: OVCAR-5 ovarian
[20] = tested on: A549 NSCLC
[21] = tested on: ACHN renal
[22] = tested on: KM12 colon
[23] = tested on: MOLT-4 leukemia
[24] = tested on: U251 CNS
[25] = tested on: EKVX NSCLC
[26] = tested on: OVCAR-4 ovarian
[27] = tested on: OVCAR-8 ovarian
[28] = tested on: RXF 393 renal
[29] = tested on: NCI-H460 lung
[30] = tested on: SN12C renal
[31] = tested on: HCT-116 colon
[32] = tested on: HT29 colon
[33] = tested on: TK-10 renal
[34] = tested on: SF-268 CNS
[35] = tested on: SK-MEL-28 melanoma
[36] = tested on: 786-0 renal
[37] = tested on: SR leukemia
[38] = tested on: CCRF-CEM leukemia
[39] = tested on: COLO 205 colon
[40] = tested on: M14 melanoma
[41] = tested on: CAKI-1 renal
[42] = tested on: SK-MEL-5 melanoma
[43] = tested on: SK-MEL-2 melanoma
[44] = tested on: HCT-15 colon
[45] = tested on: HOP-62 NSCLC
[46] = tested on: HCC-2998 colon
[47] = tested on: OVCAR-3 ovarian
[48] = tested on: LOX IMVI melanoma
[49] = tested on: K-562 leukemia
[50] = tested on: SF-295 CNS
[51] = tested on: UO-31 renal
[52] = tested on: SK-OV-3 ovarian
[53] = tested on: SNB-19 CNS
[54] = tested on: SNB-75 CNS
[55] = tested on: UACC-62 melanoma

C/C=C/CC(C)C(O)C1C(=O)NC(CC)C(=O)N(C)CC(=O)N(C)C(CC(C)C)C(=O)NC(C(C)C)C(=O)N(C)C(CC(C)C)C(=O)NC(C)C(=O)NC(C)C(=O)N(C)C(CC(C)C)C(=O)N(C)C(CC(C)C)C(=O)N(C)C(C(C)C)C(=O)N1C (stereo not given)
GI50 [1]: 1.44 µM
TGI [1]: > 32.5 µM
GI50 [2]: 3.79 µM
TGI [2]: 9.57 µM
GI50 [3]: 1.43 µM
TGI [3]: > 32.5 µM
GI50 [4]: 1.09 µM
TGI [4]: 9.02 µM and 14.8 µM
GI50 [5]: 2.29 µM
TGI [5]: 6.66 µM and 13.8 µM
GI50 [6]: 1.2 µM
TGI [6]: > 32.5 µM and 28.6 µM
GI50 [7]: 0.747 µM
TGI [7]: 5.57 µM and 8.67 µM
GI50 [8]: 0.97 µM
TGI [8]: > 32.5 µM
GI50 [9]: 2.02 µM
TGI [9]: 6.92 µM
GI50 [10]: 3.36 µM
TGI [10]: 28.2 µM
GI50 [11]: 0.609 µM
TGI [11]: 4.62 µM
GI50 [12]: 0.842 µM
TGI [12]: 5.32 µM
GI50 [13]: 2.71 µM
TGI [13]: > 32.5 µM

Cc1ccnc2[nH]c(-c3ccccc3)cc(=O)c12
GI50 [14]: 1.84 µM
TGI [14]: > 100 µM
GI50 [2]: 0.134 µM
TGI [3]: > 100 µM
TGI [15]: > 100 µM
TGI [4]: 93.7 µM
GI50 [5]: 1.46 µM
TGI [5]: 5.96 µM and 32.5 µM
GI50 [6]: 0.0692 µM
TGI [16]: > 100 µM
TGI [8]: > 100 µM
GI50 [17]: 0.0278 µM
TGI [18]: 0.192 µM
GI50 [19]: 20.9 µM
TGI [19]: 51.2 µM
TGI [9]: > 100 µM
TGI [20]: > 100 µM
TGI [21]: 63.3 µM
TGI [22]: 12.8 µM
TGI [23]: > 100 µM
TGI [10]: > 100 µM
TGI [24]: > 100 µM
GI50 [25]: > 100 µM
TGI [25]: > 100 µM
TGI [26]: > 100 µM
GI50 [27]: 0.0193 µM
TGI [27]: > 100 µM
TGI [28]: 0.0184 µM
TGI [29]: > 100 µM
GI50 [30]: 0.0399 µM
TGI [31]: 10.6 µM
TGI [32]: 0.0259 µM
TGI [33]: 58.9 µM
TGI [12]: > 100 µM
GI50 [34]: 0.0171 µM
TGI [34]: > 100 µM
TGI [35]: > 100 µM
TGI [36]: > 100 µM

CCOC(=O)/C=C/C(C(=O)/C=C/c1ccc(O)c(OC)c1)=C(O)\C=C\c1ccc(O)c(OC)c1
GI50 [14]: 11 µM
TGI [14]: 93.8 µM
GI50 [1]: 2.13 µM
TGI [1]: 6.94 µM
GI50 [2]: 2 µM
TGI [2]: 8.55 µM
GI50 [3]: 4.43 µM
TGI [3]: 18.7 µM
GI50 [15]: 9.93 µM
TGI [15]: > 100 µM
GI50 [37]: 11 µM
TGI [37]: > 100 µM
GI50 [4]: 10.5 µM
TGI [4]: 30.1 µM
GI50 [38]: 3.62 µM
TGI [38]: > 100 µM
GI50 [5]: 1.67 µM
TGI [5]: 5.1 µM
GI50 [6]: 1.73 µM
TGI [6]: 4.42 µM
GI50 [7]: 2.06 µM
TGI [7]: 4.9 µM
GI50 [39]: 3.14 µM
TGI [39]: 12.8 µM
GI50 [16]: 3.6 µM
TGI [16]: 24.7 µM
GI50 [8]: 12.8 µM
TGI [8]: > 100 µM
GI50 [17]: 2.6 µM
TGI [17]: 7.23 µM
GI50 [18]: 4.51 µM
TGI [18]: 36.4 µM
GI50 [19]: 3.17 µM
TGI [19]: 7.56 µM
GI50 [40]: 2.2 µM
TGI [40]: 5.15 µM
GI50 [20]: 4.84 µM
TGI [20]: 24.5 µM
GI50 [21]: 2.36 µM
TGI [21]: 6.25 µM
GI50 [22]: 3.96 µM
TGI [22]: > 100 µM
GI50 [41]: 4.5 µM
TGI [41]: 17.5 µM
GI50 [23]: 4.27 µM
TGI [23]: > 100 µM
GI50 [10]: 4.25 µM
TGI [10]: 41.7 µM
GI50 [42]: 2.22 µM
TGI [42]: 6 µM
GI50 [24]: 0.613 µM
TGI [24]: 12.5 µM
GI50 [43]: 5.17 µM
TGI [43]: 26.2 µM
GI50 [25]: 5.75 µM
TGI [25]: 42 µM
GI50 [26]: 7.36 µM
TGI [26]: 25.7 µM
GI50 [27]: 2.21 µM
TGI [27]: 5.91 µM
GI50 [44]: 2.27 µM
TGI [44]: 6.99 µM
GI50 [45]: 3.19 µM
TGI [45]: 16.1 µM
GI50 [29]: 20 µM
TGI [29]: 54.4 µM
GI50 [46]: 1.77 µM
TGI [46]: 3.74 µM
GI50 [11]: 3.29 µM
TGI [11]: 9.31 µM
GI50 [30]: 1.88 µM
TGI [30]: 8.16 µM
GI50 [31]: 1.31 µM
TGI [31]: 3.24 µM
GI50 [47]: 3.39 µM
TGI [47]: 12.3 µM
GI50 [48]: 0.903 µM
TGI [48]: 3.12 µM
GI50 [32]: 1.83 µM
TGI [32]: 6.6 µM
GI50 [49]: 5.66 µM
TGI [49]: > 100 µM
GI50 [33]: 5.3 µM
TGI [33]: 29.2 µM
GI50 [50]: 14.6 µM
TGI [50]: 47 µM
GI50 [12]: 8.07 µM
TGI [12]: > 100 µM
GI50 [51]: 16.9 µM
TGI [51]: 49.1 µM
GI50 [52]: 8.07 µM
TGI [52]: 25.4 µM
GI50 [34]: 11.1 µM
TGI [34]: 95.1 µM
GI50 [35]: 2 µM
TGI [35]: 6.09 µM
GI50 [53]: 5.14 µM
TGI [53]: 27.2 µM
GI50 [13]: 7.52 µM
TGI [13]: 67.5 µM
GI50 [54]: 11.2 µM
TGI [54]: 28.7 µM
GI50 [36]: 1.98 µM
TGI [36]: 6.68 µM
GI50 [55]: 1.85 µM
TGI [55]: 3.76 µM
